Counter-ions that a name gives are not always drawn. One block for each compound: values may come before it. Active and inactive are the calls of the source.
Columns and labels:
[1] = biological target: Cytochrome P450 2C19 (Homo sapiens, UniProt P33261); test: Cytochrome panel assay with activity outcomes. Panel member name: p450-cyp2c19 Compounds with AC50 equal or less than 10 uM are considered active; assay type: functional
[2] = biological target: T1, Insulin-degrading enzyme (Homo sapiens, UniProt P14735); test: activators of recombinant IDE enzyme, dose response, counter-screen for IDE activator project, biochemical, fluorescence polarization (AID 588681)
T1 sequence (P14735 whole entry): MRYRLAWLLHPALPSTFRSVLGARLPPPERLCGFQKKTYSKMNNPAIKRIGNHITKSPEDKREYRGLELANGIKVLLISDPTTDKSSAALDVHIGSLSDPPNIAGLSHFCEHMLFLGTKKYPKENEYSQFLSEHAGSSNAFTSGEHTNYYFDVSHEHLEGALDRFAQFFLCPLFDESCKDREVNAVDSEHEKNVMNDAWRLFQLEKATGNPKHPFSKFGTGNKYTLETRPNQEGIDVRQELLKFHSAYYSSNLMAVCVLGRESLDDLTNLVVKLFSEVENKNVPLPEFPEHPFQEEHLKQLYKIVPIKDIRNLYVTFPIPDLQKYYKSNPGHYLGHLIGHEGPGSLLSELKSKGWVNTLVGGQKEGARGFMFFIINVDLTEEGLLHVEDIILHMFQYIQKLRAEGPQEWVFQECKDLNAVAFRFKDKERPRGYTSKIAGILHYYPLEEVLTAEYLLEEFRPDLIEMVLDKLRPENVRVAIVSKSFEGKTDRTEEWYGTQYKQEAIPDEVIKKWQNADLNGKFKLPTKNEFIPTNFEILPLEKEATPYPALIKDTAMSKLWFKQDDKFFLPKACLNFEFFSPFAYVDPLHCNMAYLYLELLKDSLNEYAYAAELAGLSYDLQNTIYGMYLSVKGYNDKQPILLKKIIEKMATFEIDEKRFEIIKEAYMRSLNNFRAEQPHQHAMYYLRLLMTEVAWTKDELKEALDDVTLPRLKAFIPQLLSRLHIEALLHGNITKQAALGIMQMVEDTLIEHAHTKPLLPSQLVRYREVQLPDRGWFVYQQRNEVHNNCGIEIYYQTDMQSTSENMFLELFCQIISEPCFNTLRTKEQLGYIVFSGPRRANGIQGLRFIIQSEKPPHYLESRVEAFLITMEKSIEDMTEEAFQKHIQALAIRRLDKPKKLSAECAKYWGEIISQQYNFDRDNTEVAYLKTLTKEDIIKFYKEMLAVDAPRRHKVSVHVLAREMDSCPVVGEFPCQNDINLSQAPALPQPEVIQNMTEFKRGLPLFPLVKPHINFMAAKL

[3] = biological target: T1, Insulin-degrading enzyme; test: activators of endogenous IDE in HEK cells, dose response, cell-based, fluorescence polarization (AID 588439); assay type: functional
[4] = tested on: HEK293; test: HEK cell cytotoxicity by LDH release, dose response, cytotoxicity control for IDE activator project, fluorescence, HEK cells (AID 588440); assay type: functional, cell-based; conditions: Homo sapiens;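 also: cytotoxicity by LDH release measuring loss of membrane integrity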
[5] = tested on: HEK293; test: optical interference in Abeta FP readout, dose response, artefact control for IDE activator project, biochemical, fluorescence polarization (AID 588442); assay type: functional, cell-based; conditions: Homo sapiens
[6] = tested on: Candida albicans; test: growth inhibition of azole-resistant C. albicans, dose response, CaCi-8 strain, Alamar Blue, dry powder, set 3 (AID 488905); assay type: functional, organism-based
[7] = tested on: Candida albicans; test: reversal of fluconazole resistance in C. albicans, dose response, CaCi-2 strain, Alamar Blue, dry powder, set 3 (AID 488907); assay type: functional, organism-based
[8] = biological target: Dual specificity protein kinase CLK1 (Homo sapiens, UniProt P49759); test: CLK1 kinase inhibitors, off-target check, dose response, selectivity assay for Dyrk1A inhibitor project, biochemical, cherry-picked samples (AID 588811)
Sequence of Dual specificity protein kinase CLK1 (P49759 whole entry): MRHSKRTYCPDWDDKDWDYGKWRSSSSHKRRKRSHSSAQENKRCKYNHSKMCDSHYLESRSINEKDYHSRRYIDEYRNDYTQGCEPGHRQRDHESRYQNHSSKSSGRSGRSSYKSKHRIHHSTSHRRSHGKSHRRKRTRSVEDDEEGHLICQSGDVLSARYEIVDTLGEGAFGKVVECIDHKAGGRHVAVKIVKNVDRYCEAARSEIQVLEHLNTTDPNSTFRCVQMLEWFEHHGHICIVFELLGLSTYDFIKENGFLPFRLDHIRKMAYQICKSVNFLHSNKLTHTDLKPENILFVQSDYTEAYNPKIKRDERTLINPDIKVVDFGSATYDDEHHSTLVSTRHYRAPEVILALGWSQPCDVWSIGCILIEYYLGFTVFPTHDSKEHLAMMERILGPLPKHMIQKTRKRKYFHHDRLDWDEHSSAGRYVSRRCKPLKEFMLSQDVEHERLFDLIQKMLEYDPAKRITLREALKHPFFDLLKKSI

[9] = biological target: Dual specificity tyrosine-phosphorylation-regulated kinase 1A (Rattus norvegicus, UniProt Q63470); assay type: biochemical, Homo sapiens
[10] = biological target: T2, Sentrin-specific protease 8 (Homo sapiens, UniProt Q96LD8); test: SENP8 protease inhibitors, SAR follow-up, biochemical, luminescence (AID 504501); assay type: functional
T2 sequence (Q96LD8 whole entry): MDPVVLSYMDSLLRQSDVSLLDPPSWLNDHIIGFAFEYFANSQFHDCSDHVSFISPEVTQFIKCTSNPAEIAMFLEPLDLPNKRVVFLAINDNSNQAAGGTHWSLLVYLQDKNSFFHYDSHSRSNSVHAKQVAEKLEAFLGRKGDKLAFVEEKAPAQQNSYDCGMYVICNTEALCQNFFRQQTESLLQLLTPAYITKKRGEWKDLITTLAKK

[11] = biological target: T3, Caspase-3 (Homo sapiens, UniProt P42574); test: SAR Analysis of small molecule inhibitors of Sentrin-specific proteases (SENPs) using a Caspase-3 Selectivity assay. [Related pubchem assays (depositor defined):AID2540, AID2599, AID434973, AID489001]; assay type: functional
T3 sequence (P42574 whole entry): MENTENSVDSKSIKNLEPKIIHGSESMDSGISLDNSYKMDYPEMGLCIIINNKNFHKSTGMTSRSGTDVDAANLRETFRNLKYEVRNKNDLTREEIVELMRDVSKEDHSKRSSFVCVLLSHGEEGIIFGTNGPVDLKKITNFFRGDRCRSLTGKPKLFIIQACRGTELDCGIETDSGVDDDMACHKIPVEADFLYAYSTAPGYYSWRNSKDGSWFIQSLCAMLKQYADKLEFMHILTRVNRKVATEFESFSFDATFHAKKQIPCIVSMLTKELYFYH

[12] = biological target: T4, Sentrin-specific protease 6 (Homo sapiens, UniProt Q9GZR1); test: SAR Analysis of small molecule inhibitors of Sentrin-specific protease 6 (SENP6) using a Luminescent assay. [Related pubchem assays (depositor defined):AID2582, AID2599]; assay type: functional
T4 sequence (Q9GZR1 whole entry): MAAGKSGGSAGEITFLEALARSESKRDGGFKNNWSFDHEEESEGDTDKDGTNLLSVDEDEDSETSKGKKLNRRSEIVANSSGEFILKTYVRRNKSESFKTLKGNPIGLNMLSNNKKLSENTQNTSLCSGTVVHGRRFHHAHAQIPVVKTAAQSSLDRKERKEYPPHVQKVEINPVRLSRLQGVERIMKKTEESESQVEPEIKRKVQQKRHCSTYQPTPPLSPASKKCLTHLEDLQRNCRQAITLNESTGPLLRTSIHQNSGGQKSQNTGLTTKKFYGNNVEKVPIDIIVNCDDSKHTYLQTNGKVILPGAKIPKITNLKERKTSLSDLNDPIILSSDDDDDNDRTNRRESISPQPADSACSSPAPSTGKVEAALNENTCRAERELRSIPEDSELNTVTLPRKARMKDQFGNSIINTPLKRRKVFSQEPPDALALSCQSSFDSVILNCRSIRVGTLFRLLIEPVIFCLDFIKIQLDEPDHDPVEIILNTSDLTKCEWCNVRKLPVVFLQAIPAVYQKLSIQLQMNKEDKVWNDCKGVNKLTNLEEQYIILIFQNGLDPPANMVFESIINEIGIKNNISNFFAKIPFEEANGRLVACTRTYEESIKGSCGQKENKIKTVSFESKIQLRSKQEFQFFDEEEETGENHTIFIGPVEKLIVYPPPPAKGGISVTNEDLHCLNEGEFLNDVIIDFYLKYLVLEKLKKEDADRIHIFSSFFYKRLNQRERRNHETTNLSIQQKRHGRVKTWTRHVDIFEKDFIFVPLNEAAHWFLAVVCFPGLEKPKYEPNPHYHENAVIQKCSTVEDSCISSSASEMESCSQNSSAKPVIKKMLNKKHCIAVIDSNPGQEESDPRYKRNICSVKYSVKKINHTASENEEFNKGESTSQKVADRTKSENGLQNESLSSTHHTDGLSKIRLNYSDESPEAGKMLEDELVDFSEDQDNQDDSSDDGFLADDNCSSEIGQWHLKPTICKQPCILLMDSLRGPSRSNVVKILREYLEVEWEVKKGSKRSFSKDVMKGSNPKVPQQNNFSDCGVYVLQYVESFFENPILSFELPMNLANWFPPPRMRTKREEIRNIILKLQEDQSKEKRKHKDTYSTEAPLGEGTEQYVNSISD

[13] = biological target: T5, Sentrin-specific protease 7 (Homo sapiens, UniProt Q9BQF6); test: SENP7 protease inhibitors, SAR follow-up, biochemical, luminescence (AID 504497); assay type: functional
T5 sequence (Q9BQF6 whole entry): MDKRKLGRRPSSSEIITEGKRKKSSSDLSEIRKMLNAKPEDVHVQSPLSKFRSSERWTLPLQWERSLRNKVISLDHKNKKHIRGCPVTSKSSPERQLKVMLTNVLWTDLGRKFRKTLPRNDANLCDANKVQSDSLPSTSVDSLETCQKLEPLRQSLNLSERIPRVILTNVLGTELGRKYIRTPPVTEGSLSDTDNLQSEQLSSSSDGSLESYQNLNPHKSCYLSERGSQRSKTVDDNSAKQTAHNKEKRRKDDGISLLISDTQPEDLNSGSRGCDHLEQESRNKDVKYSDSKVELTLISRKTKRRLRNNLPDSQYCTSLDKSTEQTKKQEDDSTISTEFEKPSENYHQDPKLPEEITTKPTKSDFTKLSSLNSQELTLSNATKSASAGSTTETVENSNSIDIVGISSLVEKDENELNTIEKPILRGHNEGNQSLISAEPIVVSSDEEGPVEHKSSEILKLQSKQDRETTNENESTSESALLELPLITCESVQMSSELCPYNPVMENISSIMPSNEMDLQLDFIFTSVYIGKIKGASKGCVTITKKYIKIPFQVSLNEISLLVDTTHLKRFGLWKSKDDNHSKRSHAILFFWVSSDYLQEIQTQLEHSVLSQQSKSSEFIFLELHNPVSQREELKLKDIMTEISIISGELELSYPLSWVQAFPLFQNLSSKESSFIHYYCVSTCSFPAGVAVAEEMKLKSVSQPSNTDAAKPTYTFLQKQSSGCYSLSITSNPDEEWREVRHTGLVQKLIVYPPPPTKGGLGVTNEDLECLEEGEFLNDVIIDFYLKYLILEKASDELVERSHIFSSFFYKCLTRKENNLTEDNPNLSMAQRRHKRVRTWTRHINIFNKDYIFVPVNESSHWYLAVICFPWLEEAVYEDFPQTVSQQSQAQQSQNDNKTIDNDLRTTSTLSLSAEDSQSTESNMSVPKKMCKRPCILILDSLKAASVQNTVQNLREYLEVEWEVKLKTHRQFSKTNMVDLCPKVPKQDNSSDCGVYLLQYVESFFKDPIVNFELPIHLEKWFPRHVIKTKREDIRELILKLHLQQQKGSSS

[14] = biological target: T3, Caspase-3; assay type: functional
[15] = biological target: T5, Sentrin-specific protease 7; assay type: functional
[16] = biological target: T4, Sentrin-specific protease 6; assay type: functional
[17] = biological target: T2, Sentrin-specific protease 8; assay type: functional
[18] = tested on: HeLa; test: HeLa cell cytotoxicity, dose response, cytotoxicity control for MITF activator project, CellTiter-Glo luminescence, cherry-pick samples (AID 540259); assay type: functional, cell-based; conditions: Homo sapiens
[19] = biological target: Beta-galactosidase (Escherichia coli, UniProt Q8VNN2); test: PubChem AID 485352; assay type: functional
Sequence of Beta-galactosidase (Q8VNN2 whole entry): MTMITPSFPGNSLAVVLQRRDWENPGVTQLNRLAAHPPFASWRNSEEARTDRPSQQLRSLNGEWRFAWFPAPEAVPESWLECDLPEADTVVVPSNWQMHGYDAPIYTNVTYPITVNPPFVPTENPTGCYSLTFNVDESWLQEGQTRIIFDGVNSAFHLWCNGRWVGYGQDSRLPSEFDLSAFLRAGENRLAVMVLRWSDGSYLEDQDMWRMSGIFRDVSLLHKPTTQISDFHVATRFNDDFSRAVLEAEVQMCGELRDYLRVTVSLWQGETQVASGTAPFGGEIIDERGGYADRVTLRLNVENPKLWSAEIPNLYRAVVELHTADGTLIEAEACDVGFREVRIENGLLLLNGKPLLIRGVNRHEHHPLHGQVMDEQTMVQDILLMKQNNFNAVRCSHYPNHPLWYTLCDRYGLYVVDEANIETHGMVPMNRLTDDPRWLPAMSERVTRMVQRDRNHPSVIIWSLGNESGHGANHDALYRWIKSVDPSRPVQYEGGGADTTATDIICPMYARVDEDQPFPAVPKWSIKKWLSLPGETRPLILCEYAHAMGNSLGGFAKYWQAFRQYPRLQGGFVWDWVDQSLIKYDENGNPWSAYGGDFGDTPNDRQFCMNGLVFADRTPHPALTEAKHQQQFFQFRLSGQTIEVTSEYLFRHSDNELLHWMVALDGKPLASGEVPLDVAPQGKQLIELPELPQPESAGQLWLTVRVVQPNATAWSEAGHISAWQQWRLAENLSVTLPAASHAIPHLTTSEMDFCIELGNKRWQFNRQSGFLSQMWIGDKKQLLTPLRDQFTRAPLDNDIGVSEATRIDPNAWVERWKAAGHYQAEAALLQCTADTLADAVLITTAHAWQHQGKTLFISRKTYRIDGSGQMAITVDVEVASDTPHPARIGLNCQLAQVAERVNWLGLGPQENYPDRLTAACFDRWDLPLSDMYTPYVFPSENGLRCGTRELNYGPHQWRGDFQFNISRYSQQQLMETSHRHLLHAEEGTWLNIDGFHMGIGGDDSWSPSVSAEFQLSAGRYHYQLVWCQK

[20] = biological target: Type-1 angiotensin II receptor (Homo sapiens, UniProt P30556); test: AT1 receptor antagonists, dose response, selectivity assay for APJ receptor antagonist project, cell-based, uHTS hits (AID 463214); assay type: functional;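 also: antagonist potency against angiotensin II stimulated AT1 response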
[21] = biological target: Voltage-gated inwardly rectifying potassium channel KCNH2 (Homo sapiens, UniProt Q12809); conditions: Potency;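 also: confirmatory quantitative high-throughput screen measuring inhibition of hERG channel activity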
[22] = biological target: Phospholipase D1 (Homo sapiens, UniProt Q13393); test: PLD1 inhibitor potency in cells, dose response (AID 602151); assay type: functional;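 also: cellular PLD1 assay in Calu-1 cells stimulated with PMA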
Sequence of Phospholipase D1 (Q13393 whole entry): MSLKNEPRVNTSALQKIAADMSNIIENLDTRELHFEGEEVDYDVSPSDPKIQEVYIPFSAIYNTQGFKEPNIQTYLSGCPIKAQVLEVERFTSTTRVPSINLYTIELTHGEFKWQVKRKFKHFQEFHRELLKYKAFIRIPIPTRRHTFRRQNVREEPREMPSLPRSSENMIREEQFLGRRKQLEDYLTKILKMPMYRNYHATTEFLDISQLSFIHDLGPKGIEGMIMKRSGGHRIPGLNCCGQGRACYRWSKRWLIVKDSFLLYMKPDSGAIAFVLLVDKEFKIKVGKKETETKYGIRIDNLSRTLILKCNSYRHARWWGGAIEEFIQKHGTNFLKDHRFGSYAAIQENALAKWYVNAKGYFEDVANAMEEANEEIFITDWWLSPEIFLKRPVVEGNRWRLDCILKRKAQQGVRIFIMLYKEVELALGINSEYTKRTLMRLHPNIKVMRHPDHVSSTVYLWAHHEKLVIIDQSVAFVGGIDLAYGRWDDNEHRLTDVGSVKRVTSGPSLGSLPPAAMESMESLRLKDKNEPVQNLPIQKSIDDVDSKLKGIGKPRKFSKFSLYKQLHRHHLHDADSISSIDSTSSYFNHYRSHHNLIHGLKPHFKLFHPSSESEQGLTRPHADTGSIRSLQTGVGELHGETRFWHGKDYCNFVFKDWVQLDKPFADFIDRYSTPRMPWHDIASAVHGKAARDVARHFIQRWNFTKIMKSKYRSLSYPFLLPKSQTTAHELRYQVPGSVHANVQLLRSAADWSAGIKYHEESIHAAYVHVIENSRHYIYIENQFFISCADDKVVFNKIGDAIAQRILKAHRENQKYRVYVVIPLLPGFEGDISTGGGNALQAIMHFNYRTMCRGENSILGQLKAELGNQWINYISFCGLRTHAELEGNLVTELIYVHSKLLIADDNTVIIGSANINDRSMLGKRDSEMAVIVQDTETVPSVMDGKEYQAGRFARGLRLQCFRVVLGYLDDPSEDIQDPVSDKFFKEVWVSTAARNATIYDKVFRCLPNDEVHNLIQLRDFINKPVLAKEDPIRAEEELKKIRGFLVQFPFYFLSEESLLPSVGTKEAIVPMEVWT

[23] = biological target: Phospholipase D2 (Homo sapiens, UniProt O14939); test: PLD2 inhibitor potency in cells, dose response (AID 602147); assay type: functional;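 also: cellular assay in HEK293 cells overexpressing GFP-tagged PLD2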
[24] = biological target: T6, Endoribonuclease toxin MazF (Escherichia coli K-12, UniProt P0AE70); test: MazF toxin RNase activators, dose response, biochemical, fluorescence, single-stranded RNA substrate, uHTS hits (AID 588481); assay type: functional
T6 sequence (P0AE70 whole entry): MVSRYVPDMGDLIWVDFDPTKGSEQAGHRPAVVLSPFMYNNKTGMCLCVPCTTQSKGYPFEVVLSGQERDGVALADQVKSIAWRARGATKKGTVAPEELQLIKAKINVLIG

[25] = biological target: Delta-type opioid receptor (Homo sapiens, UniProt P41143); test: Counterscreen for agonists of heterodimerization of the mu 1 (OPRM1) and delta 1 (OPRD1) opioid receptors: Luminescence-based cell-based high throughput dose response assay to identify agonists of OPRD1 homodimerization. [Related pubchem assays (depositor defined):AID504326, AID504355, AID504692, AID504904, AID504905]; assay type: functional
Sequence of Delta-type opioid receptor (P41143 whole entry): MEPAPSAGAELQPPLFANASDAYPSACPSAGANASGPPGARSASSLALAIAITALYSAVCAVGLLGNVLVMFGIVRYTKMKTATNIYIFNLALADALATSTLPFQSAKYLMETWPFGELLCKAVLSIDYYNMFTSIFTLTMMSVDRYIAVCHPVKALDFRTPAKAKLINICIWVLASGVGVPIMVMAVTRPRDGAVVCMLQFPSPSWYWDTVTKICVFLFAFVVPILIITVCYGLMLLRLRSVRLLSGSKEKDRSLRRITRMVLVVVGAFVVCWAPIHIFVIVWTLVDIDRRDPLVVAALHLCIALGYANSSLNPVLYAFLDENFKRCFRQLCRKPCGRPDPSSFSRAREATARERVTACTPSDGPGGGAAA

[26] = biological target: Mu-type opioid receptor (Homo sapiens, UniProt P35372); test: Counterscreen for agonists of heterodimerization of the mu 1 (OPRM1) and delta 1 (OPRD1) opioid receptors: Luminescence-based cell-based high throughput dose response assay to identify agonists of OPRM1 homodimerization.; assay type: functional;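 also: U2OS cells expressing OPRM1 and beta-arrestin as split beta-galactosidase partners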
[27] = biological target: 5-hydroxytryptamine receptor 5A (Homo sapiens, UniProt P47898); test: Counterscreen for agonists of OPRM1-OPRD1 heterodimerization: luminescence-based cell-based high throughput dose response assay to identify agonists of 5-hydroxytryptamine (serotonin) 5A receptor (HTR5A). [Related pubchem assays (depositor defined):AID504326, AID504355, AID504692, AID504904, AID504905]; assay type: functional
Sequence of 5-hydroxytryptamine receptor 5A (P47898 whole entry): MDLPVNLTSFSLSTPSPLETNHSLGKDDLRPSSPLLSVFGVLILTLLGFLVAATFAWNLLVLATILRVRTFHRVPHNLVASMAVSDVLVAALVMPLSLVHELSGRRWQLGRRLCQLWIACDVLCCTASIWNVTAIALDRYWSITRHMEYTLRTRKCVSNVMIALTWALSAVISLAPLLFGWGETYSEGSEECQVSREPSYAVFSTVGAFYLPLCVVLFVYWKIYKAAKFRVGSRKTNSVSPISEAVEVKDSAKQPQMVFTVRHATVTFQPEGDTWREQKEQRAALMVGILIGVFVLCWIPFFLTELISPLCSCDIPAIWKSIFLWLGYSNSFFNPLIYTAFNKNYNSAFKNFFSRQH

[28] = biological target: T6, Endoribonuclease toxin MazF; test: fluorescent RNA oligo signal without MazF, dose response, counter-screen for MazEF activator project, biochemical, fluorescence, single-stranded RNase substrate (AID 588502); assay type: functional
[29] = inhibitors of HIV Env-driven cell fusion, dose response, cherry-pick (AID 652057); assay type: functional, cell-based
[30] = CEM21 lymphoblast cell cytotoxicity, dose response, cytotoxicity control for viral fusion inhibitor project, CellTiter-Glo luminescence, cherry-picked (AID 652042); assay type: functional, cell-based;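 also: potency for signal decrease meaning cytotoxicity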
[31] = ZM109 Env clade C HIV-1 fusion inhibitors, dose response, HeLa effector, CEM target cells, luciferase, cherry-pick (AID 652058); assay type: functional, cell-based

Sequence of Cytochrome P450 2C19 (P33261 whole entry): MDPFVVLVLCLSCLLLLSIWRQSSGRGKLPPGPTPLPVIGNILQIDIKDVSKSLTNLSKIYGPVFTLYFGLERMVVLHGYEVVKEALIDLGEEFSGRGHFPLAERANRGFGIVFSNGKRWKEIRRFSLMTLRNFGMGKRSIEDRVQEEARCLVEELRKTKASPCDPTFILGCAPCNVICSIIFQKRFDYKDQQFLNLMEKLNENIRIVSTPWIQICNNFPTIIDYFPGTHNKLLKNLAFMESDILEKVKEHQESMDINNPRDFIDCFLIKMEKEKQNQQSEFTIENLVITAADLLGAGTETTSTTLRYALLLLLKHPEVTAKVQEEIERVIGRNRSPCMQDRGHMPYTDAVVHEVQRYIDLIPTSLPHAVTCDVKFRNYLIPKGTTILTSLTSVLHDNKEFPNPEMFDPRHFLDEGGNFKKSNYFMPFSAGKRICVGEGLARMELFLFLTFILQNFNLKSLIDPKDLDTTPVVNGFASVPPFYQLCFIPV

SMILES: O=C(/C=C/c1ccc(Cl)cc1)Nc1ccc(N2CCCCC2)cc1
- AC50 [1]: inconclusive
- EC50 [2]: > 54.7 µM (inactive)
- EC50 [3]: > 54.7 µM (inactive)
- IC50 [4]: > 89.2 µM (inactive)
- EC50 [5]: > 54.7 µM (inactive)

SMILES: O=C(c1ccc(F)cc1)N1CCN(c2ccccn2)CC1
- AC50 [6]: 53.2 µM (active)
- AC50 [7]: 4.43 µM (active)

- AC50 [8]: 21.6 µM (active)
- AC50 [9]: 2.95 µM (active)
SMILES: COc1cc(C(=O)Nc2cccc(-c3nncn3C)c2)cc(OC)c1OC

- IC50 [11]: > 99 µM (inactive)
- IC50 [12]: > 99 µM (inactive)
- IC50 [13]: > 99 µM (inactive)
SMILES: C(=C\c1nc(-c2cc3ccccc3cn2)no1)/c1ccccc1
- IC50 [10]: > 99 µM (inactive)

SMILES: COC(=O)Nc1nnc(-c2ccccc2Cl)s1
- IC50 [14]: 5.86 µM (active)
- IC50 [15]: 5.89 µM (active)
- IC50 [16]: 18.9 µM (active)
- IC50 [17]: 23.6 µM (active)
- AC50 [18]: 61.8 µM (active)

- EC50 [19]: > 40 µM (inactive)
- IC50 [20]: 2.72 µM (active)
SMILES: O=C(CCl)NNc1cccc(Cl)n1

SMILES: Cc1ccccc1/C=C/C1=NCCN1 [METRAZOLINE OXALATE]
- AC50 [21]: 15.8 µM (inconclusive)

SMILES: C[C@@H](CN1CCC2(CC1)C(=O)NCN2c1ccc(F)c(F)c1)NC(=O)c1cc2ccccc2[nH]1
- IC50 [22]: 0.003 µM (active)
- IC50 [23]: 0.034 µM (active)

SMILES: Nc1nonc1C(=O)NCCNCc1c(OCc2ccccc2F)ccc2ccccc12
- EC50 [24]: > 99 µM (inactive)
- EC50 [25]: 74.8 µM (inactive)
- EC50 [26]: > 92.5 µM (inactive)
- EC50 [27]: > 92.5 µM (inactive)
- EC50 [28]: > 99 µM (inactive)
- AC50 [29]: 0.922 µM (active)
- AC50 [30]: 52.6 µM (active)
- AC50 [31]: 14.1 µM (active)

Source: ChEMBL document CHEMBL1201862, “PubChem BioAssay data set” (2004)
